Results reported in paper PMC12543283, “TastepepAI: An artificial intelligence platform for taste peptide de novo design” (PLOS Computational Biology, 2025).
Ends that are not written are not given here.

Key:
[1] = Electronic tongue analysis (Taste-Sensing System SA 402B); set-up: unit not given here; settings: reference solution 30 mM KCl + 0.3 mM tartaric acid as baseline, first measurement excluded; for Umami: sensor AAE; for Umami / Bitter / Sweet: detection threshold 0, room temperature; for Umami / Bitter / Sour / Salty: four replicates; for Sour: detection threshold -13, room temperature; for Salty: detection threshold -6, room temperature; for Sweet: measured five times
Protocol: Taste characteristics were analyzed using the electronic tongue system E-tongue (Taste-Sensing System SA 402B, Intelligent Sensor Technology Co. Ltd., Japan). The system was equipped with five specific sensor probes for detecting sourness (CA0), saltiness (CT0), bitterness (C00), sweetness (GL1), and umami (AAE). Samples were tested at concentrations of 0.1 mg/mL and 1.0 mg/mL. Prior to experiments, sensors were activated by immersion in a reference solution (30 mM KCl and 0.3 mM tartaric acid) for 24 h. A 30 min self-diagnostic procedure was performed before each measurement to ensure data accuracy. The reference solution served both as a cleaning solution and standard solution for taste signal calibration. According to the manufacturer’s instructions, using the reference solution as baseline, the detection thresholds were set at −13 for sourness, −6 for saltiness, and 0 for other taste modalities. Two cleaning solutions were employed for electrode maintenance: (1) 30% ethanol solution containing 100 mM HCl for negative charge reference electrodes, and (2) 30% ethanol solution containing 100 mM KCl and 10 mM KOH for positive charge reference electrodes. All taste measurements were performed at room temperature with four replicates, except for sweetness which was measured five times. The first measurement data were excluded from analysis.

[2] = system: human bronchial epithelial cells (BEAS-2B)
[3] = system: human embryonic kidney cells (HEK293T)
[4] = system: human pancreatic ductal epithelial cells (HPNE)
[5] = system: human umbilical vein endothelial cells (HUVEC)

Substance	Umami ([1]; peptide 0.1 mg/mL)	Umami ([1]; peptide 1 mg/mL)	Bitter ([1]; sensor C00, peptide 0.1 mg/mL)	Bitter ([1]; sensor C00, peptide 1 mg/mL)	Sour ([1]; sensor CA0, peptide 0.1 mg/mL)	Sour ([1]; sensor CA0, peptide 1 mg/mL)	Salty ([1]; sensor CT0, peptide 0.1 mg/mL)	Salty ([1]; sensor CT0, peptide 1 mg/mL)	Sweet ([1]; sensor GL1, peptide 0.1 mg/mL)	Sweet ([1]; sensor GL1, peptide 1 mg/mL)	Average cell viability, BEAS-2B [2]	Cell viability, BEAS-2B, Data1 [2]	Cell viability, BEAS-2B, Data2 [2]	Cell viability, BEAS-2B, Data3 [2]	Average cell viability, HEK293T [3]	Cell viability, HEK293T, Data1 [3]	Cell viability, HEK293T, Data2 [3]	Cell viability, HEK293T, Data3 [3]	Average cell viability, HPNE [4]	Cell viability, HPNE, Data1 [4]	other results
VPDELN [TaPep23]	1.53	-4.39	7.18	3.47	-3.15	11.00	-22.67	6.69	5.26	-4.58	102.53	109.87	92.32	105.38	90.54	91.61	84.89	95.11	99.63	105.82	Cell viability, HPNE, Data2 [4]: 109.52; Cell viability, HPNE, Data3 [4]: 83.56; Average cell viability, HUVEC [5]: 97.76; Cell viability, HUVEC, Data1 [5]: 98.19; Cell viability, HUVEC, Data2 [5]: 95.72; Cell viability, HUVEC, Data3 [5]: 99.39
KGGEV [TaPep68]	0.75	-4.79	7.39	3.94	-1.26	12.33	-15.75	12.33	3.06	-4.04	104.35	106.68	113.46	92.92	100.03	100.79	94.92	104.38	94.11	97.24	Cell viability, HPNE, Data2 [4]: 99.23; Cell viability, HPNE, Data3 [4]: 85.86; Average cell viability, HUVEC [5]: 103.75; Cell viability, HUVEC, Data1 [5]: 103.54; Cell viability, HUVEC, Data2 [5]: 113.44; Cell viability, HUVEC, Data3 [5]: 94.28
IFGDD [TaPep57]	1.71	-5.02	7.29	3.08	-3.54	12.57	-21.64	9.94	6.75	-7.93	100.86	99.70	103.89	99.00	99.72	100.22	96.06	102.87	103.13	83.76	Cell viability, HPNE, Data2 [4]: 112.81; Cell viability, HPNE, Data3 [4]: 112.81; Average cell viability, HUVEC [5]: 100.24; Cell viability, HUVEC, Data1 [5]: 106.57; Cell viability, HUVEC, Data2 [5]: 103.38; Cell viability, HUVEC, Data3 [5]: 90.77
TDPELV [TaPep60]	1.33	-5.30	7.64	3.00	-2.65	12.51	-20.71	9.00	5.70	-9.69	110.77	105.88	117.95	108.47	103.06	105.62	98.99	104.57	111.81	114.61	Cell viability, HPNE, Data2 [4]: 113.81; Cell viability, HPNE, Data3 [4]: 107.02; Average cell viability, HUVEC [5]: 102.29; Cell viability, HUVEC, Data1 [5]: 91.72; Cell viability, HUVEC, Data2 [5]: 106.41; Cell viability, HUVEC, Data3 [5]: 108.73
DAELDK [TaPep34]	0.43	-4.87	7.62	3.25	-0.52	15.34	-17.51	13.63	5.08	-6.74	99.04	114.56	90.63	91.92	101.89	98.04	102.49	105.14	103.89	99.83	Cell viability, HPNE, Data2 [4]: 96.64; Cell viability, HPNE, Data3 [4]: 115.21; Average cell viability, HUVEC [5]: 96.25; Cell viability, HUVEC, Data1 [5]: 90.61; Cell viability, HUVEC, Data2 [5]: 95.80; Cell viability, HUVEC, Data3 [5]: 102.34
FPEQQD [TaPep16]	1.15	-5.22	7.29	3.65	-2.22	12.97	-21.97	7.92	4.77	-5.75	95.65	98.50	96.11	92.32	100.13	105.99	97.00	97.38	104.83	100.13	Cell viability, HPNE, Data2 [4]: 113.61; Cell viability, HPNE, Data3 [4]: 100.73; Average cell viability, HUVEC [5]: 101.44; Cell viability, HUVEC, Data1 [5]: 102.74; Cell viability, HUVEC, Data2 [5]: 107.69; Cell viability, HUVEC, Data3 [5]: 93.88
APEELDA [TaPep36]	0.55	-6.54	7.85	3.11	-0.61	17.06	-18.92	13.68	5.62	-8.13	102.92	111.17	103.39	94.22	103.41	103.44	102.11	104.67	113.58	114.11	Cell viability, HPNE, Data2 [4]: 111.61; Cell viability, HPNE, Data3 [4]: 115.01; Average cell viability, HUVEC [5]: 101.78; Cell viability, HUVEC, Data1 [5]: 93.96; Cell viability, HUVEC, Data2 [5]: 95.80; Cell viability, HUVEC, Data3 [5]: 115.59
VARLEA [TaPep9]	2.67	-2.73	7.95	2.75	-6.31	8.17	-18.92	12.49	8.92	-4.48	112.30	110.77	115.45	110.67	105.62	103.06	112.15	101.64	104.39	117.30	Cell viability, HPNE, Data2 [4]: 93.74; Cell viability, HPNE, Data3 [4]: 102.13; Average cell viability, HUVEC [5]: 96.43; Cell viability, HUVEC, Data1 [5]: 97.15; Cell viability, HUVEC, Data2 [5]: 102.50; Cell viability, HUVEC, Data3 [5]: 89.65
